In ChEMBL document CHEMBL1132579, “Self-organizing molecular field analysis: a tool for structure-activity studies” (J Med Chem, 1999):

These compounds were tested against T1, Corticosteroid-binding globulin (Homo sapiens) (UniProt P08185) (assay: Compound was evaluated for its binding affinity towards the human corticosteroid binding globulin).
T1 sequence (whole entry): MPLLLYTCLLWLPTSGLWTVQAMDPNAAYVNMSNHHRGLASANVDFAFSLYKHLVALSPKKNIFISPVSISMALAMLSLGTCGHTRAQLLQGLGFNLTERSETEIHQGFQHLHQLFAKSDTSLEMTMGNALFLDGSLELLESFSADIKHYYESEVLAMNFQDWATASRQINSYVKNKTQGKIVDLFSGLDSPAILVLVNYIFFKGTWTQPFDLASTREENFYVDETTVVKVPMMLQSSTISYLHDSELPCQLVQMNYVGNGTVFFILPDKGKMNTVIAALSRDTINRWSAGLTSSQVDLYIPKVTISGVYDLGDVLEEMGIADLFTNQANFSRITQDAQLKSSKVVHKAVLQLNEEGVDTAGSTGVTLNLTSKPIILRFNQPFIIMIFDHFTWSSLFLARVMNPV
With C[C@@H]1C[C@@]2(C)C(=CC1=O)CC[C@H]1[C@@H]3CC[C@](O)(C(=O)CO)[C@@]3(C)C[C@H](O)[C@@]12F the Log was -5.8 k. CC(=O)[C@H]1[C@H](C)C[C@H]2[C@@H]3CCC4=CC(=O)CC[C@]4(C)[C@H]3CC[C@@]21C gave a Log of -7.12 k. CC(=O)[C@H]1CC[C@H]2[C@@H]3CCC4=CC(=O)CC[C@]4(C)[C@H]3C(=O)C[C@]12C showed a Log of -6.78 k. With C[C@]12C=CC(=O)C=C1CC[C@@H]1[C@@H]2[C@@H](O)C[C@@]2(C)[C@H]1CC[C@]2(O)C(=O)CO the Log was -7.51 k. CC(=O)OCC(=O)[C@@]1(O)CCC2C3CCC4=CC(=O)CC[C@]4(C)C3[C@@H](O)C[C@@]21C (some centres undefined) showed a Log of -7.55 k. CC(=O)[C@@]1(O)[C@H](O)C[C@H]2[C@@H]3CCC4=CC(=O)CC[C@]4(C)[C@H]3CC[C@@]21C was tested, and the Log was -6.25 k. C[C@]12CC[C@H]3[C@@H](CCC4=CC(=O)CC[C@@H]43)[C@@H]1CC[C@@H]2O gave a Log of -6.14 k. CC(=O)[C@H]1CCC2C3CCC4=CC(=O)CCC4C3CC[C@@]21C (some centres undefined) showed a Log of -6.82 k. In the case of C[C@]12C[C@@H](O)[C@H]3[C@@H](CCC4=CC(=O)CC[C@@]43C)[C@@H]1CC[C@@H]2C(=O)CO, the Log was -7.2 k.
